Calls of active or inactive are those of the source. No cut-off for these calls is given here. *1 amine or outer side, *2 acyl side, *3 side chain or, on linkers, in order; H or OH if unused. Where a SMILES comes first, the peptide text is derived from it. [ ]: non-standard residue; d: D form. The star is where a group is joined. Phe(4-CH2SO3H) = N[C@@H](Cc1ccc(CS(=O)(=O)O)cc1)C(=O)O; C18 diacid = O=C(O)CCCCCCCCCCCCCCCCC(=O)*; γGlu = O=C(O)[C@H](CCC(=O)[*:2])N[*:1]; NMeF = CN[C@@H](Cc1ccccc1)C(=O)O; dNMeD = CN[C@H](CC(=O)O)C(=O)O; Nle = CCCC[C@H](N)C(=O)O; AEEA = NCCOCCOCC(=O)O
Key:
[1] = target: T1, Cholecystokinin receptor type A (Homo sapiens, UniProt P32238); experiment: Agonist activity at human CCK1R expressed in HEK293 cells assessed as ERK1/2 phosphorylation incubated for 5 mins by AlphaScreen assay; format: functional, cell-based
T1 sequence (P32238 whole entry): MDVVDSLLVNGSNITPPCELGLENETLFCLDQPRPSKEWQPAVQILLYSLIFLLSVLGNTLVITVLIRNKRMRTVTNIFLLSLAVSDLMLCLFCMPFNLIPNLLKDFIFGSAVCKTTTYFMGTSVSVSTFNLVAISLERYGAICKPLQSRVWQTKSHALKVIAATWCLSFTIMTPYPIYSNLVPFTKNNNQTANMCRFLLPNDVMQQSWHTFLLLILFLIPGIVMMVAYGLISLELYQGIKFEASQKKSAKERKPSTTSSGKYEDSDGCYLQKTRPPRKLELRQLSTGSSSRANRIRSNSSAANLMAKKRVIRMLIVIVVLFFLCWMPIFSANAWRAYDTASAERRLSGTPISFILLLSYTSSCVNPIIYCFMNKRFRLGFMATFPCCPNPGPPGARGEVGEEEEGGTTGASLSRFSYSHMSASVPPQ

[2] = target: T2, Gastrin/cholecystokinin type B receptor (Homo sapiens, UniProt P32239); experiment: Agonist activity at human CCK2R expressed in HEK293 cells assessed as ERK1/2 phosphorylation incubated for 5 mins by AlphaScreen assay; format: functional, cell-based
T2 sequence (P32239 whole entry): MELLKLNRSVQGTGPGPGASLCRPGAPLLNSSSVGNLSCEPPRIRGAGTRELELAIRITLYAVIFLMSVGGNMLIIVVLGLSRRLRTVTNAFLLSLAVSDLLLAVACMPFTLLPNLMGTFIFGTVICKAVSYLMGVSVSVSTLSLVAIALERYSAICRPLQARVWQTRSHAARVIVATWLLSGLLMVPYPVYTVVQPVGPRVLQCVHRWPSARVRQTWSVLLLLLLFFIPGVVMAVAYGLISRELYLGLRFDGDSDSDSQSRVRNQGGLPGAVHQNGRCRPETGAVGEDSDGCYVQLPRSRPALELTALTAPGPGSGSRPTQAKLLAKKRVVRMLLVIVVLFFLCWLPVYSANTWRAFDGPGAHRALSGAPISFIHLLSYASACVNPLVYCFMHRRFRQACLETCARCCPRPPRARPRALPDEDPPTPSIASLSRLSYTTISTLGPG

Mus musculus [3] = experiment: Anti-diabesity activity against high fat diet-induced DIO C57BL/6 mouse model assessed as decrease in body weight at 25 nmol/kg, sc administered for 2 weeks; format: functional; settings: C57BL/6, 336 h, time 14 day
Mus musculus [4] = experiment: Anti-diabesity activity against high fat diet-induced DIO C57BL/6 mouse model assessed as reduction in food intake at 25 nmol/kg, sc administered for 2 weeks; format: functional, organism-based; settings: time 14.0 day
Mus musculus [5] = experiment: Anti-diabesity activity against high fat diet-induced DIO C57BL/6 mouse model assessed as reduction in fat mass accumulation at 25 nmol/kg, sc administered for 2 weeks and measured on day 15 by NMR analysis; format: functional, organism-based; settings: time 15.0 day
Mus musculus [6] = experiment: Anti-diabesity activity against high fat diet-induced DIO C57BL/6 mouse model assessed as reduction in fasted blood glucose level at 25 nmol/kg, sc administered for 2 weeks and measured on day 15 by glucometer analysis; format: functional, organism-based; settings: time 15.0 day
Mus musculus [7] = experiment: Hypoglycemic activity in db/db mouse assessed as improvement in glucose tolerance at 25 nmol/kg, ip administered 30 min before oral glucose administration and measured upto 120 mins by OGTT; format: functional, organism-based
Mus musculus [8] = experiment: Hypoglycemic activity in db/db mouse assessed as reduction in glucose excursion at 25 nmol/kg, ip administered 30 min before oral glucose administration and measured upto 120 mins by OGTT; format: functional, organism-based
Mus musculus [9] = experiment: Insulinotropic activity in db/db mouse assessed as elevation of plasma insulin level at 25 nmol/kg, ip administered 30 min before oral glucose administration and measured upto 60 mins by ELISA; format: functional, organism-based; settings: time <= 90.0 min
Mus musculus [10] = experiment: Anti-diabesity activity in DIO C57BL/6 mouse assessed as reduction in body weight at 10 nmol/kg, sc administered every 2 days for 10 days; format: functional; settings: C57BL/6, 240 h, time 10 day
Mus musculus [11] = experiment: Anti-diabesity activity in DIO C57BL/6 mouse assessed as reduction in body weight at 25 nmol/kg, sc administered every 2 days for 10 days; format: functional; settings: C57BL/6, 240 h, time 10 day
Mus musculus [12] = experiment: Anti-diabesity activity in DIO C57BL/6 mouse assessed as improvement in insulin sensitivity at 25 nmol/kg, sc administered every 2 days for 10 days by insulin tolerance test; format: functional, organism-based; settings: time 10.0 day
Mus musculus [13] = experiment: Anti-diabesity activity against DIO C57BL/6 mouse assessed as reduction in body weight at 25 nmol/kg, sc administered every 2 days for 3 weeks; format: functional; settings: C57BL/6, 504 h, time 21 day
Mus musculus [14] = experiment: Anti-diabesity activity against DIO C57BL/6 mouse assessed as reduction in cumulative food intake at 25 nmol/kg, sc administered every 2 days for 3 weeks; format: functional, organism-based; settings: time 21.0 day
Mus musculus [15] = experiment: Anti-diabesity activity against DIO C57BL/6 mouse assessed as decrease in fat mass at 25 nmol/kg, sc administered every 2 days for 3 weeks; format: functional, organism-based; settings: time 21.0 day
Mus musculus [16] = experiment: Anti-diabesity activity against DIO C57BL/6 mouse assessed as reduction in fasted blood glucose level at 25 nmol/kg, sc administered every 2 days for 3 weeks; format: functional, organism-based; settings: time 21.0 day
Mus musculus [17] = experiment: Anti-diabesity activity against DIO C57BL/6 mouse assessed as improvement in glucose tolerance at 25 nmol/kg, sc administered every 2 days for 3 weeks by OGTT; format: functional, organism-based; settings: time 21.0 day
Mus musculus [18] = experiment: Anti-diabesity activity against DIO C57BL/6 mouse assessed as reduction in cholesterol level in serum at 25 nmol/kg, sc administered every 2 days for 3 weeks; format: functional, organism-based; settings: time 21.0 day
Mus musculus [19] = experiment: Anti-diabesity activity against DIO C57BL/6 mouse assessed as reduction in triglycerides level in serum at 25 nmol/kg, sc administered every 2 days for 3 weeks; format: functional, organism-based; settings: time 21.0 day
Mus musculus [20] = experiment: Anti-diabesity activity in DIO C57BL/6 mouse assessed as reduction in body weight at 100 nmol/kg, sc administered every 2 days for 10 days; format: functional; settings: C57BL/6, 240 h, time 10 day
Mus musculus [21] = experiment: Anti-diabesity activity against high fat diet-induced DIO C57BL/6 mouse model assessed as improvement in glucose tolerance level at 25 nmol/kg, sc administered for 2 weeks and measured on day 16 by oral glucose tolerance test; format: functional, organism-based; settings: time 16.0 day
Mus musculus [22] = experiment: Anorectic activity in ICR mouse assessed as decrease in food intake at 25 nmol/kg, ip and measured after 24 hrs; format: functional, organism-based
BRIN-BD11 = experiment: Insulinotropic activity in rat BRIN-BD11 cells assessed as increase in insulin secretion incubated for 20 mins by radioimmunoassay; format: functional, cell-based; settings: DDE = dose-dependent effect

Q: What does the source list for CCCC[C@H](NC(=O)[C@H](Cc1ccc(CS(=O)(=O)O)cc1)NC(=O)[C@H](CC(=O)O)NC(=O)COCCOCCNC(=O)COCCOCCNC(=O)CC[C@H](NC(=O)CCCCCCCCCCCCCCCCC(=O)O)C(=O)O)C(=O)NCC(=O)N[C@@H](Cc1c[nH]c2ccccc12)C(=O)N[C@@H](CCCC)C(=O)N(C)[C@H](CC(=O)O)C(=O)N(C)[C@@H](Cc1ccccc1)C(N)=O ({C18 diacid-γGlu-AEEA-AEEA}-D[Phe(4-CH2SO3H)][Nle]GW[Nle][dNMeD][NMeF]-NH2)?
A: EC50 [1]: 0.21 nM; EC50 [2]: > 100 nM; inhibition in vivo at 0.025 µmol/kg (Mus musculus [3]): 7.1%; Activity (Mus musculus [4]): Active; Activity (Mus musculus [5]): Active; Activity (Mus musculus [6]): Active; Activity (Mus musculus [7]): Active; Activity (Mus musculus [8]): Active; Activity (Mus musculus [9]): Active; inhibition in vivo at 0.01 µmol/kg (Mus musculus [10]): 3.9%; inhibition in vivo at 0.025 µmol/kg (Mus musculus [11]): 6.1%; Activity (Mus musculus [12]): Active; inhibition in vivo at 0.025 µmol/kg (Mus musculus [13]): 9.8%; Activity (Mus musculus [14]): Active; Activity (Mus musculus [15]): Active; Activity (Mus musculus [16]): Active; Activity (Mus musculus [17]): Active; Activity (Mus musculus [18]): Active; Activity (Mus musculus [19]): Active; inhibition in vivo at 0.1 µmol/kg (Mus musculus [20]): 10%; Activity (Mus musculus [21]): Active; Activity (Mus musculus [22]): Active; Activity (BRIN-BD11): Dde
